According to PubChem BioAssay (NCI):
Values joined by “and” are separate entries in the source; they are usually repeats but may differ in a detail not shown here. Equal values may be shown once.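 Following 48 hours of exposure in 96-well plates, responses at five concentrations were used to interpolate endpoints linearly. GI50 marks 50% less growth. TGI denotes the concentration required for complete inhibition of growth.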

Experiments:
Test in all cases: NCI tumour cell line growth inhibition, 48 h
MDA-N = tested on: MDA-N
LXFL 529 NSCLC = tested on: LXFL 529 NSCLC
DLD-1 colon = tested on: DLD-1 colon
RXF-631 renal = tested on: RXF-631 renal
KM20L2 colon = tested on: KM20L2 colon
DMS 273 small cell lung = tested on: DMS 273 small cell lung
DMS 114 small cell lung = tested on: DMS 114 small cell lung
HOP-18 NSCLC = tested on: HOP-18 NSCLC
SNB-78 CNS = tested on: SNB-78 CNS
P388/ADR leukemia = tested on: P388/ADR leukemia
P388 leukemia = tested on: P388 leukemia
SN12K1 renal = tested on: SN12K1 renal

Row | Structure (SMILES) | TGI (MDA-N) [µM] | TGI (LXFL 529 NSCLC) [µM] | TGI (DLD-1 colon) | TGI (RXF-631 renal) [µM] | TGI (KM20L2 colon) | TGI (DMS 273 small cell lung) | TGI (DMS 114 small cell lung) | TGI (HOP-18 NSCLC) | TGI (SNB-78 CNS) [µM] | other results
1 | O=C(O)c1ccc([N+](=O)[O-])c(P(=O)(O)O)c1 | > 100 | – | – | – | – | – | – | – | – | –
2 | NC(Cc1cc(Br)c(O)c(Br)c1)C(=O)O (stereo not drawn) | > 100 | – | – | – | – | – | – | – | – | –
3 | Cn1nc(-c2ccccc2)c(C(=O)/C=C/c2ccccc2)c(N2CCCCC2)c1=O | – | > 100 | > 100 µM | > 100 | > 100 µM | > 100 µM | > 100 µM | > 100 µM | – | –
4 | CCCCCCCCC(=O)CCCCCCCCC(=O)O | – | 67.5 | 40.1 µM | 44.1 | 67.8 µM | 75.7 µM | 64.4 µM | 49.4 µM | > 100 | –
5 | CC12Oc3ccc4ccccc4c3C1c1c(ccc3ccccc13)O2 (stereo not drawn) | – | > 100 | > 100 µM | – | > 100 µM | > 100 µM | > 100 µM | – | > 100 | –
6 | CCOC(=O)CC(=O)N(c1ccc(OC)cc1)C(C(=O)OC)c1ccccc1 (stereo not drawn) | > 100 | – | – | – | – | – | – | – | – | –
7 | COC(=O)C1C2CC3C(OC(=O)C31)C2I (stereo not drawn) | – | – | – | – | > 100 µM | > 100 µM | > 100 µM | – | > 100 | –
8 | CC(=O)c1cc2c3c(c1)c1cc4c(cc1c(=O)n3CC2)OCO4 | – | > 100 | > 100 µM | > 100 | > 100 µM | > 100 µM | > 100 µM | 76.6 µM | > 100 | –
9 | Nc1ccn(C2OC(CO[P+](=O)OC3C(CO[P+](=O)OC4C(CO[P+](=O)OC5C(CO[P+](=O)OC6C(CO[P+](=O)OC7C(CO[P+](=O)OC8C(CO[P+](=O)OC9C(CO[P+](=O)OC%10C(CO[P+](=O)OC%11C(CO)OC(n%12ccc(N)nc%12=O)C%11(F)F)OC(n%11ccc(N)nc%11=O)C%10(F)F)OC(n%10ccc(N)nc%10=O)C9(F)F)OC(n9ccc(N)nc9=O)C8(F)F)OC(n8ccc(N)nc8=O)C7(F)F)OC(n7ccc(N)nc7=O)C6(F)F)OC(n6ccc(N)nc6=O)C5(F)F)OC(n5ccc(N)nc5=O)C4(F)F)OC(n4ccc(N)nc4=O)C3(F)F)C(O)C2(F)F)c(=O)n1 (stereo not drawn) | > 100 | – | – | – | – | – | – | – | – | –
10 | O=[n+]1cnn([O-])c2ccccc21 | 44.2 | – | – | – | – | – | – | – | – | –
11 | CC1C(=O)CCC1C(Sc1ccccc1)(Sc1ccccc1)Sc1ccccc1 (stereo not drawn) | – | 77.9 | > 100 µM | > 100 | – | > 100 µM | 49.6 µM | – | > 100 | –
12 | CCC[CH2][Sn]([CH2]CCC)([O]C(=O)c1cc(OC)c(OC)c(OC)c1)[O]C(=O)c1cc(OC)c(OC)c(OC)c1 | – | 0.536 | 2.46 µM | 1.83 | 3.3 µM | 2.95 µM | 1.54 µM | – | 1.58 | GI50 (LXFL 529 NSCLC): 0.215 µM; GI50 (DLD-1 colon): 1.21 µM; GI50 (RXF-631 renal): 0.53 µM; GI50 (SNB-78 CNS): 0.453 µM; GI50 (KM20L2 colon): 1.8 µM; GI50 (DMS 273 small cell lung): 1.35 µM; GI50 (DMS 114 small cell lung): 0.404 µM
13 | Nc1ccccc1S(=O)c1ccccc1 (stereo not drawn) | – | > 100 | – | – | > 100 µM | > 100 µM | > 100 µM | > 100 µM | – | –
14 | CCOC(=O)NC(=O)c1cn(CCCCCCCCCCC(=O)N2CCN(CCn3cc(C(=O)NC(=O)OCC)c(=O)[nH]c3=O)CC2)c(=O)[nH]c1=O | – | > 100 | > 100 µM | > 100 | > 100 µM | > 100 µM | > 100 µM | > 100 µM | > 100 | –
15 | CCOC(=O)/C(=C/c1cc(OC)ccc1OC)CC(=O)O | – | > 100 | > 31.6 µM | > 100 | > 100 µM | > 100 µM | > 100 µM | > 100 µM | > 100 | –
16 | Cn1c(O)c(C=N)c(=O)n(C)c1=O | – | – | > 100 µM | – | > 100 µM | – | > 100 µM | > 100 µM | > 100 | –
17 | c1ccc2c(c1)nnn1c3cnccc3nc21 | – | > 100 | > 100 µM | – | > 100 µM | 36 µM | 69.5 µM | > 100 µM | > 100 | –
18 | O=c1oc2c(Br)c(O)c(Br)cc2c2ccccc12 | > 100 | – | – | – | – | – | – | – | – | –
19 | COC(=O)C(=C\Sc1ccccc1)/C=C/C(=O)OC(C)(C)C | – | 13.5 | 7.59 µM | – | 31.1 µM | 24.5 µM | 25.8 µM | 30 µM | 31.9 | –
20 | CCCCCCCCCCCCCCCCc1c(C(=O)OC)[nH]c(=S)[nH]c1=O | – | > 50 | > 50 µM | > 50 | > 50 µM | > 50 µM | – | > 50 µM | > 50 | –
21 | O=C1C(CN(Cc2ccccc2)Cc2ccccc2)CCCC1CN(Cc1ccccc1)Cc1ccccc1 (stereo not drawn) | > 100 | – | 10.4 µM and > 100 µM | > 100 | 35.6 µM and > 100 µM | 33.3 µM and > 100 µM | 10.3 µM and > 100 µM | 11.8 µM and > 100 µM | > 100 | GI50 (SNB-78 CNS): 28.1 µM and > 100 µM; GI50 (KM20L2 colon): 17.6 µM and > 100 µM; GI50 (DMS 273 small cell lung): 17.1 µM and > 100 µM; GI50 (HOP-18 NSCLC): 5.67 µM and 48.5 µM
22 | [Ce+3].[Cl-].[O-]/N=C(\c1ccccc1)c1ccccn1.[O-]/N=C(\c1ccccc1)c1ccccn1.[O-]/N=C(\c1ccccc1)c1ccccn1 | – | > 100 | > 100 µM | – | > 100 µM | > 100 µM | 85 µM | – | – | GI50 (LXFL 529 NSCLC): 44.4 µM; GI50 (DLD-1 colon): 40 µM; GI50 (KM20L2 colon): > 100 µM; GI50 (DMS 273 small cell lung): 31.9 µM; GI50 (DMS 114 small cell lung): 28.3 µM
23 | Cc1cc(=O)[nH]c(CNC(=O)c2cccc3ccccc23)n1 | – | > 100 | > 100 µM | – | > 100 µM | > 100 µM | – | – | > 100 | –
24 | COC(=O)C1C(=O)O[C@@H](c2ccc(OC)cc2)C1C(=O)OC (stereo partly drawn) | – | > 100 | > 100 µM | – | > 100 µM | > 100 µM | > 100 µM | > 100 µM | – | –
25 | Cc1cc(NC(=O)NC(=O)c2ccccc2[N+](=O)[O-])ccc1Oc1ncc(Cl)cn1 | 29.5 | 24.3 | 43.7 µM | – | 0.44 µM | 0.365 µM | > 100 µM | 91.1 µM | 62.6 | –
26 | O=[N+]([O-])c1ccccc1S(=O)(=O)c1ccccc1[N+](=O)[O-] | > 100 | > 100 | > 100 µM | – | > 100 µM | > 100 µM | > 100 µM | > 100 µM | > 100 | –
27 | CC(/C=C/C=C/C=C/C=C/C=C/C(O)=C1/C(=O)C(CCC(=O)O)N(C)C1=O)=C\C(C)C(OC1CC(O)C(O)C(C)O1)C(C)C (stereo not drawn) | 12.7 | – | – | – | – | – | – | – | – | –
28 | COc1ccccc1/C=C1\CCC(CN(C)C)C1=O (stereo not drawn) | 26 | – | 4.98 µM | – | 16.4 µM | 20.5 µM | 7.58 µM | > 53.1 µM | 29.2 | TGI (P388/ADR leukemia): 2.75 µM; TGI (P388 leukemia): 2.83 µM; TGI (SN12K1 renal): 4.4 µM
29 | CCC1(O)C(=O)OCc2c1cc1n(c2=O)Cc2c-1nc1ccccc1c2OC (stereo not drawn) | – | > 69.6 | > 100 µM | – | – | 0.108 µM | 1.26 µM | > 77.9 µM | > 100 | –
30 | Cc1ccc(NC(=O)C2C(=O)C(=O)N(c3ccc(C)cc3)C2=O)cc1 (stereo not drawn) | – | > 100 | > 100 µM | – | > 100 µM | – | > 100 µM | > 100 µM | > 100 | –
